Experimental data as given in ChEMBL document CHEMBL1144392, “2,3-Diaminopyridine as a platform for designing structurally unique nonpeptide bradykinin B1 receptor antagonists” (Bioorg Med Chem Lett, 2005).

How the values were obtained:
B1 bradykinin receptor = molecular target: T1, B1 bradykinin receptor (Homo sapiens, UniProt P46663); experiment: Inhibitory constant against human Bradykinin receptor B1 expressed in chinese hamster ovary cells; type: cell-based, CHO
T1 sequence (P46663 whole entry): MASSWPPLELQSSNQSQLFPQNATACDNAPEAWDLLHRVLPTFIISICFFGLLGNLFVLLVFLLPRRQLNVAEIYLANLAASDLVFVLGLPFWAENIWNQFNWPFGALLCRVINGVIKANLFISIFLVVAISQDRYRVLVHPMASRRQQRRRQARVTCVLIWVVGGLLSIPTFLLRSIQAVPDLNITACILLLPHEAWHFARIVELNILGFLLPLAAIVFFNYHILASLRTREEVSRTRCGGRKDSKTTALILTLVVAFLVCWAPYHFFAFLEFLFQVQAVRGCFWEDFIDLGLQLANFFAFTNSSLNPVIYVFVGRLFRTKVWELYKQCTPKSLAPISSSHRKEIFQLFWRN

[1] = Oral bioavailability in the Sprague Dawley rats; (n = 3); type: ADME, organism-based; details: rat, in vivo
[2] = Clearance in the Sprague Dawley rats; (n = 3); type: ADME, organism-based; details: rat, in vivo
[3] = Half life in the Sprague Dawley rats; (n = 3); type: ADME; details: rat, in vivo
[4] = Half life in the Sprague Dawley rats; (n = 3); ND = not determined; type: ADME; details: rat, in vivo

| Compound | Ki (B1 bradykinin receptor) | bioavailability [1] | clearance [2] | half-life [3] | half-life [4] |
| --- | --- | --- | --- | --- | --- |
| Cc1ccnc(NCc2ccc(-c3ccccc3C(=O)O)cc2)c1NC(=O)CC#N | 11.5 nM | 19% | 4.3 mL/min/kg | 120 min |  |
| CCC(=O)Nc1cccnc1NCc1ccc(-c2ccccc2C(=O)OC)cc1 | 119 nM |  |  |  |  |
| COCC(=O)Nc1cccnc1NCc1ccc(-c2ccccc2C(=O)OC)cc1 | 390 nM |  |  |  |  |
| CCCC(=O)Nc1cccnc1NCc1ccc(-c2ccccc2C(=O)OC)cc1 | 88 nM | 15% | 23 mL/min/kg | 24 min |  |
| COC(=O)c1ccccc1-c1ccc(CNc2ncccc2NC(=O)CC(F)(F)F)cc1 |  | 9% | 35 mL/min/kg |  | 12 min |
| CNC(=O)c1ccccc1-c1ccc([C@@H](C)Nc2nccc(C)c2NC(=O)CC(F)(F)F)cc1 | 6 nM | 25% | 31 mL/min/kg | 30 min |  |
| CNC(=O)c1ccccc1-c1ccc(CNc2nccc(C)c2NC(=O)CC(F)(F)F)cc1 | 11 nM | 79% | 30 mL/min/kg | 60 min |  |
| COC(=O)c1ccccc1-c1ccc(CNc2ncccc2NC(=O)CC#N)cc1 | 11 nM | 28% | 18 mL/min/kg | 48 min |  |
| CCCCC(=O)Nc1cccnc1NCc1ccc(-c2ccccc2C(=O)OC)cc1 |  | 2% | 30 mL/min/kg | 12 min |  |
| COC(=O)c1ccccc1-c1ccc(CNc2nccc(C)c2NC(=O)CC(F)(F)F)cc1 | 7.1 nM | 40% | 14 mL/min/kg | 24 min |  |
| COC(=O)c1ccccc1-c1ccc([C@@H](C)Nc2nccc(C)c2NC(=O)CC(F)(F)F)cc1 | 1.8 nM | 17% | 8 mL/min/kg | 54 min |  |
| COC(=O)c1ccccc1-c1ccc([C@@H](C)Nc2nccc(C)c2NC(=O)CC#N)cc1 | 2.6 nM | 27% | 18.5 mL/min/kg | 12 min |  |
| CNC(=O)c1ccccc1-c1ccc(CNc2ncccc2NC(=O)CC(F)(F)F)cc1 | 33 nM | 95% | 15 mL/min/kg | 18 min |  |
| COC(=O)c1ccccc1-c1ccc(CNc2ncccc2NC(=O)CS(C)(=O)=O)cc1 | 40 nM |  |  |  |  |
| COC(=O)c1ccccc1-c1ccc(CNc2ncccc2NC(=O)CN(C)C)cc1 | 1280 nM |  |  |  |  |
| COC(=O)c1ccccc1-c1ccc(CNc2ncccc2NC(=O)C(C)C)cc1 | 230 nM |  |  |  |  |
